Data taken from patent US11141403B2, “Benzimidazoles and indoles as taro inhibitors” (MERCK SHARP & DOHME CORP., priority 2015, dated 2021).

Test system: MRSA COL (MB5393)
Experiment: TarO Inhibitor/β-Lactam Synergy Assay
Type: cell-based, Staphylococcus aureus
Conditions: 20 hours; for IC95: Staphylococcus aureus, TarO inhibitor alone, OD600, 95% growth inhibition, read-out: MITC95 TarO inhibitor alone, Bacteria: SA_MB5393; for MITC95 TarO inhibitor + 4 μg/mL IPM; Bacteria: SA_MB5393: in combination with 4 μg/mL imipenem; for MITC95 TarO inhibitor + 4 μg/mL IPM; Bacteria: SA_MB5393 / MITC95 TarO inhibitor + 8 μg/mL DCX; Bacteria: SA_MB5393: OD600; for MITC95 TarO inhibitor + 8 μg/mL DCX; Bacteria: SA_MB5393: in combination with 8 μg/mL dicloxacillin
Description: The TarO inhibitor/β-lactam synergy assay was performed to measure the re-sensitization of methicillin-resistant Staphylococci bacteria (MB5393: MRSA COL) to β-lactam antibiotics by TarO inhibitors. MRSA COL is a hospital-acquired penicillinase-negative clinically isolated strain commonly used in Staphylococcus aureus studies and is fully resistant to the antimicrobial bioactivity of β-lactam antibiotics, including but not limited to imipenem and dicloxacillin. […] MRSA COL is fully refractory to β-lactam antibiotic effect at the current clinical breakpoint concentrations and as such MRSA COL is fully viable at these concentrations.
The β-lactam antibiotic concentration was fixed at the clinical breakpoint (imipenem 4 μg/ml or dicloxacillin 8 μg/ml) and the TarO inhibitors were titrated by 2 fold starting from the highest concentration of 200 μM with final DMSO concentration of 2% in the assay. 5×10^5 colony forming unit of MRSA COL in cation-adjusted Mueller Hinton broth (CAMHB) was then mixed and the assay plate was incubated for 20 hours at 37° C. without shaking. After 20 hours, the optical density at 600 nm (OD600) was read for all wells to determine relative growth of MRSA COL.

SMILES	IC95	MITC95 TarO inhibitor + 4 μg/mL IPM; Bacteria: SA_MB5393	MITC95 TarO inhibitor + 8 μg/mL DCX; Bacteria: SA_MB5393
CC(C)(C)OC(=O)NCC1CCC(c2nc3ccccc3n2CCC(=O)NC2C[C@H]3CC[C@]2(C)C3(C)C)CC1 (stereo partly drawn) [Example 40, tert-butyl ({4-[1-(3-oxo-3-{[(1R,4R)-1,7,7-trimethylbicyclo[2.2.1]hept-2-yl]amino}propyl)-1H-benzimidazol-2-yl]cyclohexyl}methyl) carbamate]	> 200 µM	2.34 µM	9.38 µM
CC(C)(C)OC(=O)N1CCC(c2nc3ccccc3n2CCC(=O)NC2C[C@H]3CC[C@]2(C)C3(C)C)C1 (stereo partly drawn) [Example 41, tert-butyl 3-[1-(3-oxo-3-{[(1R,4R)-1,7,7-trimethylbicyclo[2.2.1]hept-2-yl]amino}propyl)-1H-benzimidazol-2-yl]pyrrolidine-1-carboxylate]	> 200 µM	5.47 µM	37.50 µM
CCN(C(=O)CCn1c(-c2ccc(-n3ccnn3)cc2)nc2ccccc21)C1CCCCC1 [Example 42, N-cyclohexyl-N-ethyl-3-{2-[4-(1H-1,2,3-triazol-1-yl)phenyl]-1H-benzimidazol-1-yl}propanamide]	> 200 µM	18.75 µM	25.00 µM
CCN(C(=O)CCn1c(C2CCCN(c3nccc(OC)n3)C2)nc2ccccc21)C1CCCCC1 (stereo not drawn) [Example 43, N-cyclohexyl-N-ethyl-3-(2-(1-(4-methoxypyrimidin-2-yl)piperidin-3-yl)-1H-benzo[d]imidazol-1-yl)propanamide]	100 µM	0.20 µM	0.78 µM
CCN(C(=O)CCn1c(C2CCC(C)N(c3cccc(OC)n3)C2)nc2ccccc21)C1CCCCC1 (stereo not drawn) [Example 44, N-cyclohexyl-N-ethyl-3-{2-[1-(6-methoxypyridin-2-yl)-6-methylpiperidin-3-yl]-1H-benzimidazol-1-yl}propanamide]	100 µM	0.10 µM	0.20 µM
CCCCOC(=O)N1CCCC(c2nc3ccccc3n2CCC(=O)N(CC)C2CCCCC2)C1 (stereo not drawn) [Example 45, butyl 3-(1-{3-[cyclohexyl(ethyl)amino]-3-oxopropyl}-1H-benzimidazol-2-yl)piperidine-1-carboxylate]	100 µM	0.20 µM	0.78 µM
CCc1nsc(N2CCCC(c3nc4ccccc4n3CCC(=O)N(CC)C3CCCCC3)C2)n1 (stereo not drawn) [Example 46, N-cyclohexyl-N-ethyl-3-{2-[1-(3-ethyl-1,2,4-thiadiazol-5-yl)piperidin-3-yl]-1H-benzimidazol-1-yl}propanamide]	100 µM	1.56 µM	6.25 µM
CCN(C(=O)CCn1c(C2CCCN(c3cccc(OC)n3)C2)nc2ccccc21)C1CCCCC1 (stereo not drawn) [Example 47, N-cyclohexyl-N-ethyl-3-{2-[1-(6-methoxypyridin-2-yl)piperidin-3-yl]-1H-benzimidazol-1-yl}propanamide]	100 µM	0.10 µM	0.20 µM
CCN(C(=O)CCn1c(C2CCCN(c3ccccn3)C2)nc2ccccc21)C1CCCCC1 (stereo not drawn) [Example 48, N-cyclohexyl-N-ethyl-3-[2-(1-pyridin-2-ylpiperidin-3-yl)-1H-benzimidazol-1-yl]propanamide]	> 200 µM	1.56 µM	50 µM
CCCOC(=O)N1CC(c2nc3ccccc3n2CCC(=O)N(CC)C2CCCCC2)CCC1C (stereo not drawn) [Example 49, propyl 5-(1-{3-[cyclohexyl(ethyl)amino]-3-oxopropyl}-1H-benzimidazol-2-yl)-2-methylpiperidine-1-carboxylate]	100 µM	0.78 µM	6.25 µM
CCN(C(=O)CCn1c(C2CCC(C)N(c3nccc(OC)n3)C2)nc2ccccc21)C1CCCCC1 (stereo not drawn) [Example 50, N-cyclohexyl-N-ethyl-3-{2-[1-(4-methoxypyrimidin-2-yl)-6-methylpiperidin-3-yl]-1H-benzimidazol-1-yl}propanamide]	100 µM	0.20 µM	1.56 µM
CCCOC(=O)N1CCCC(c2nc3ccccc3n2CCC(=O)N(CC)C2CCCCC2)C1 (stereo not drawn) [Example 51, Propyl 3-(1-{3-[cyclohexyl(ethyl)amino]-3-oxopropyl}-1H-benzimidazol-2-yl)piperidine-1-carboxylate]	100 µM	0.39 µM	3.13 µM
CCN(C(=O)CCn1c(C2CCCN(c3nccc(C)n3)C2)nc2ccccc21)C1CCCCC1 (stereo not drawn) [Example 52, N-cyclohexyl-N-ethyl-3-{2-[1-(4-methylpyrimidin-2-yl)piperidin-3-yl]-1H-benzimidazol-1-yl}propanamide]	100 µM	1.56 µM	6.25 µM
CCN(C(=O)CCn1c(C2CCCN(C(=O)OC(C)C)C2)nc2ccccc21)C1CCCCC1 (stereo not drawn) [Example 53, 1-methylethyl 3-(1-{3-[cyclohexyl(ethyl)amino]-3-oxopropyl}-1H-benzimidazol-2-yl)piperidine-1-carboxylate]	100 µM	1.56 µM	6.25 µM
CCN(C(=O)CCn1c(N2CCC(F)(F)CC2)nc2ccccc21)C1CCCCC1 [Example 55, N-cyclohexyl-3-(2-(4,4-difluoropiperidin-1-yl)-1H-benzo[d]imidazol-1-yl)-N-ethylpropanamide]	> 200 µM	1.37 µM	7.81 µM
CCN(C(=O)CCn1c(N2CCC(C(F)F)CC2)nc2ccccc21)C1CCCCC1 [Example 56, N-cyclohexyl-3-{2-[4-(difluoromethyl)piperidin-1-yl]-1H-benzimidazol-1-yl}-N-ethylpropanamide]	> 200 µM	1.17 µM	4.69 µM
CCN(C(=O)CCn1c(N2CCC(C)CC2)nc2ccccc21)C1CCCCC1 [Example 57, N-cyclohexyl-N-ethyl-3-[2-(4-methylpiperidin-1-yl)-1H-benzimidazol-1-yl]propanamide]	> 200 µM	1.30 µM	26 µM
CCN(C(=O)CCn1c(N2CCC(C(C)(C)C)CC2)nc2ccccc21)C1CCCCC1 [Example 58, 3-[2-(4-tert-butylpiperidin-1-yl)-1H-benzimidazol-1-yl]-N-cyclohexyl-N-ethylpropanamide]	> 200 µM	0.02 µM	0.13 µM
CCN(C(=O)CCn1c(N2CCC[C@H](NC(=O)OC(C)(C)C)C2)nc2ccccc21)C1CCCCC1 [Example 59, tert-butyl [(3S)-1-(1-{3-[cyclohexyl(ethyl)amino]-3-oxopropyl}-1H-benzimidazol-2-yl)piperidin-3-yl]carbamate]	> 200 µM	50 µM	150 µM
CCN(C(=O)CCn1c(CN2CCC(C(C)(C)C)CC2)nc2ccccc21)C1CCCCC1 [Example 60, 3-{2-[(4-tert-butylpiperidin-1-yl)methyl]-1H-benzimidazol-1-yl}-N-cyclohexyl-N-ethylpropanamide]	> 200 µM	0.78 µM	6.25 µM
CCC1CCN(Cc2nc3cc(C)ccc3n2CCC(=O)N(CC)C2CCCCC2)CC1 [Example 61, N-cyclohexyl-N-ethyl-3-{2-[(4-ethylpiperidin-1-yl)methyl]-5-methyl-1H-benzimidazol-1-yl}propanamide]	50 µM	6.25 µM	25 µM
